Results from publication PMC3779320, “Bub3 reads phosphorylated MELT repeats to promote spindle assembly checkpoint signaling” (eLife, 2013).
Square brackets hold non-standard residues; d marks the D form. Peptide text beside a SMILES is read from it. pT = C[C@@H](OP(=O)(O)O)[C@H](N)C(=O)O

Target: T1, Bub1^289–359–R314A–Bub3 (Saccharomyces cerevisiae, UniProt P26449+P41695, R314A)
T1 construct: S. cerevisiae Bub1^289–359 and for full length Bub3; ITC experiment with the MELT2^P peptide and the Bub1^289–359–R314A–Bub3 complex; GST (N, cleaved yes); made in house; host or cells: E. coli BL21 DE3 plysS
Type: binding
Conditions: ITC; Bub3-Bub1^R314A mutant compared to wild type Bub3–Bub1; MELT4^P: data not shown
Excerpt: Such function of Bub1 is probably exerted primarily through its structuring effects on the 4-stranded β-sheet ‘roof’ that dominates the peptide-binding region of Bub3 and which restrains the position of the positively charged residues in the ‘north’ area of the MELT^P-binding site (Figure 4E). Additionally, we observe that Arg314^Bub1, in the β1-β2 loop, contributes to the interaction with the phosphate group of P-Thr172^Spc105/Knl1 (the interaction, however, is only observed in one of the two complexes in the asymmetric unit, and in proximity of a crystal contact) and is therefore directly engaged in the interaction with the MELT2^P peptide. In ITC measurements, we observed a ∼fourfold reduction in the binding affinity of the Bub3-Bub1^R314A mutant for the MELT2^P peptide, in agreement with a role of Arg314^Bub1 is in the interaction of the Bub1-Bub3 complex with MELT2^P (Figure 4F). Similarly, Bub3–Bub1^R314A bound the MELT4^P with ∼threefold decreased affinity compared to wild type Bub3–Bub1 (data not shown).
Binding isotherm was measured at 25°C by isothermal titration calorimetry on a MicroCal ITC200 device (GE Healthcare, Piscataway, NJ). All samples were extensively dialysed into fresh GF buffer (20 mM Tris pH7.5, 150 mM NaCl, 1 mM DTE). […]

T1 sequence (P26449 whole entry): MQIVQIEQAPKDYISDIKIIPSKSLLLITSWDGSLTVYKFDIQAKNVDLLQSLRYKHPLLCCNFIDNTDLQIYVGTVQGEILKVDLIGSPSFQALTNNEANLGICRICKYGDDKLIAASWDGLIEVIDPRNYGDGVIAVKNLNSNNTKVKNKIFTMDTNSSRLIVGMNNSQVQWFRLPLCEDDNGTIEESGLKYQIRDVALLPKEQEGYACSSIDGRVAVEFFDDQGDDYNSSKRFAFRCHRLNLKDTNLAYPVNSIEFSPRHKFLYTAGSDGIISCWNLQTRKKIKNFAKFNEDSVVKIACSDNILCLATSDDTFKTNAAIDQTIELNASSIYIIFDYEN
T1 sequence (P41695 289-359 R314A): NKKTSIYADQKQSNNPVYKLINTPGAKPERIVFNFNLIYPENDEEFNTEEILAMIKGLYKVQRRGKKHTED

With `CC[C@H](C)[C@H](NC(=O)[C@H](CO)NC(=O)[C@H](CCCNC(=N)N)NC(=O)[C@@H]1CCCN1C(=O)[C@H](Cc1ccccc1)NC(=O)[C@@H](NC(=O)[C@H](CCC(=O)O)NC(=O)[C@@H](NC(=O)[C@H](CCSC)NC(=O)[C@H](CCC(=O)O)NC(=O)[C@H](CCSC)NC(=O)[C@H](CO)NC(=O)[C@@H](NC(=O)[C@@H]1CCCN1C(=O)[C@H](CC(=O)O)NC(C)=O)[C@@H](C)O)[C@@H](C)OP(=O)(O)O)C(C)C)C(=O)N[C@@H](CCCNC(=N)N)C(=O)N[C@@H](CCC(N)=O)C(=O)N[C@@H](CCCCN)C(=O)N[C@@H](CC(N)=O)C(N)=O` [MELT2^P] (Ac-DPTSMEM[pT]EVFPRSIRQKN-NH2; N-terminus and C-terminus assumed) the “fold reduction in binding affinity” value was “fourfold”.
